# From patent publication US9556153B1, “JAK1 inhibitors” (Eli Lilly and Company, priority 2015, dated 2017)
# Assays:
# [1] = test system: pSTAT3 expression in the H1975 xenograft; assay: pSTAT3 Rat IVTI (JAK1) Assay, H1975 xenograft; assay type: in vivo; settings: single oral dose, two hours, n=1
# Protocol: pSTAT3 Rat IVTI (JAK1) Assay
# The purpose of this assay is to measure the ability of test compounds to inhibit the pSTAT3 expression in the H1975 xenograft rat model. Grow H1975 cells according to ATCC specifications at the lowest possible passage number available. Culture and maintain cells in RPMI-1640 supplemented with 10% FBS and incubated at 37° C. in 5% CO2. Harvest cells by standard techniques and mix with BD Biosciences basement membrane matrix (MATRIGEL®) to achieve a 1:1 cell/matrix ratio yielding an inoculation volume of 0.2 mL cell/matrix suspension containing 2e6 cells. Keep cell suspensions on ice throughout the inoculation procedure and start implantations within one hour after cell culture harvest. […] Time course studies are a single dose administered at the TED70 determined from the dose response study. […]
# Harvest and cut tumors to yield approximately 200-250 mm^3 size fragments and immediately drop into a 12×75 mm tube containing 1 mL of ice cold MSD Tris Lysis buffer (Meso Scale Discovery cat# R60TX-2) and 1×HALT (Thermo Scientific product #1861281). […] Cool plate to RT and measure absorbance at or near 562 nm on Molecular Devices Spectra Max. Protein concentrations for each sample are determined using SoftMax Pro 6.3 software program. After tumor samples are quantitated, freeze at −80° C. in the 96 well polypropylene plate and assay at a later date. […]
# [2] = test system: Ba/F3 cells expressing human mtJAK1 (S729C); assay: BaF3 Mutant JAK-1 (S729C) Clone 12 Proliferation Assay; assay type: cell-based, Murine; settings: BaF3, 72 h; 3 day incubation, Cell Titer Glo; n=4
# Protocol: BaF3 Mutant JAK-1 (S729C) Clone 12 Proliferation Assay
# The purpose of this assay is to determine the inhibitory activity of JAK-1 specific inhibitors using the BaF3 mutant JAK-1 (S729C) Clone 12 proliferation assay.
# mtJAK1 (S729C) expressing cell line is created by transducing Ba/F3 cells (Murine pro-B-cells) with a retrovirus expressing human mtJAK1 (S729C)-pQCXIN vector DNA. Single cell cloning is performed to select Ba/F3 cells expressing highest levels of mtJAK1 (S729C) by serial dilution. BaF3 mutant JAK-1 (S729C) suspension cells are cultured and maintained in (Gibco RPMI 1640 cat# A10491-01) containing 10% Hi-FBS (Hyclone cat#10082-047), 1 μg/ml puromycin dihydrochloride (Sigma cat#9620), 1.0 mg/mL G418 sulfate (Corning ref#30-234-CI), referred to as R10+ from now on.
# Proliferation assays are performed in culture medium without selection and from now on will be referred to as (R10−). Briefly, cultured cells are decanted, centrifuged and reconstituted in 10 mL of R10− and counted using a Beckman Coulter Vi-Cell. Cells are further diluted to 2e4/mL in R10− and plated in a 96 well white opaque assay plates (Costar cat#3610) at 1×10^3 cells (50 μls) per well. […] Luminescence is then read on a Perkin Elmer Victor2 using a preset program for luminescence at 0.1 second. […]
structure (smiles),measurement,setting,value
"Cc1cc(Nc2cc(O[C@H]3CC[C@@H](NC[C@@H](O)C(F)(F)F)CC3)cc3c2ncn3C)nn1C [Example 1, (2R)-3-{[cis-4-({4-[(1,5-Dimethyl-1H-pyrazol-3-yl)amino]-1-methyl-1H-benzimidazol-6-yl}oxy)cyclohexyl]amino}-1,1,1-trifluoropropan-2-ol]",TEC50 (plasma concentration required to achieve 50% pSTAT3 inhibition),[1],3.9 μM
same,TED50 (dose necessary to achieve 50% pSTAT3 inhibition),[1],9 mg/kg
same,IC50,[2],956 nM
